Peptide text beside a SMILES is read from it. * marks the point of attachment. X1 = CC(C)[C@H](/C=C(\Cl)[C@H](C)N)C(=O)*; X2 = CC(C)[C@H](/C=C(\F)[C@H](C)N)C(=O)*; X3 = C/C(=C\[C@H](C(=O)*)C(C)C)[C@H](C)N
Key:
[1] = tested on: UMR106-06; test: Compound was evaluated for the accumulation of cyclic AMP in UMR10606 (rat osteosarcoma) cells.; type: functional, cell-based; conditions: Rattus norvegicus, UMR106-06
[2] = tested on: OK-1; test: Accumulation of cyclic AMP in OK-1 cells.; type: functional, cell-based, opossum; conditions: opossum, OK-1
[3] = tested on: SAOS-2; test: Compound was evaluated for the accumulation of cyclic AMP in SaOS-2 (human osteosarcoma) cells.; type: functional, cell-based; conditions: Homo sapiens, SAOS-2
[4] = tested on: OK-1; test: Displacement of [125I]-chick PTHrP-(1-36)-NH2 from opossum (OK-1) kidney cells; type: functional
[5] = tested on: OK-1; test: Compound was evaluated for the intrinsic activity for accumulation of cyclic AMP in OK-1 cells.; type: functional, opossum
[6] = tested on: UMR106-06; test: Compound was evaluated for the intrinsic activity for accumulation of cyclic AMP in UMR10606 (rat osteosarcoma) cells.; type: functional
[7] = tested on: SAOS-2; test: Compound was evaluated for the intrinsic activity for accumulation of cyclic AMP in SaOS-2 (human osteosarcoma) cells.; type: functional

| EC50 [1] [nM] | EC50 [2] [nM] | EC50 [3] [nM] | Compound | pKD [4] | Intrinsic activity [5] | Intrinsic activity [6] | Intrinsic activity [7] |
| --- | --- | --- | --- | --- | --- | --- | --- |
| 1.6 | 4.4 | 1.5 | CC[C@H](C)[C@H](NC(=O)[C@H](CCC(=O)O)NC(=O)[C@H](CO)NC(=O)[C@@H](/C=C(\F)[C@H](C)N)C(C)C)C(=O)N[C@@H](CCC(N)=O)C(=O)N[C@@H](CC(C)C)C(=O)N[C@@H](CCSC)C(=O)N[C@@H](Cc1c[nH]cn1)C(=O)N[C@@H](CC(N)=O)C(=O)N[C@@H](CC(C)C)C(=O)NCC(=O)N[C@@H](CCCCN)C(=O)N[C@@H](Cc1c[nH]cn1)C(=O)N[C@@H](CC(C)C)C(=O)N[C@@H](CC(N)=O)C(=O)N[C@@H](CO)C(=O)N[C@@H](CCSC)C(=O)N[C@@H](CCC(=O)O)C(=O)N[C@@H](CCCN=C(N)N)C(=O)N[C@H](C(=O)N[C@@H](CCC(=O)O)C(=O)N[C@@H](Cc1c[nH]c2ccccc12)C(=O)N[C@@H](CC(C)C)C(=O)N[C@@H](CCCN=C(N)N)C(=O)N[C@@H](CCCCN)C(=O)N[C@@H](CCCCN)C(=O)N[C@@H](CC(C)C)C(=O)N[C@@H](CCC(N)=O)C(=O)N[C@@H](CC(=O)O)C(=O)N[C@H](C(=O)N[C@@H](Cc1c[nH]cn1)C(=O)N[C@@H](CC(N)=O)C(=O)N[C@@H](Cc1ccccc1)C(=O)N[C@H](C(=O)N[C@@H](C)C(N)=O)C(C)C)C(C)C)C(C)C (X2-SEIQLMHNLGKHLNSMERVEWLRKKLQDVHNFVA-NH2) | 8.9 | 1 | 1 | 0.89 |
| 1.2 | 4.4 | 1.1 | CC[C@H](C)[C@H](NC(=O)[C@H](CCC(=O)O)NC(=O)[C@H](CO)NC(=O)[C@@H](/C=C(\C)[C@H](C)N)C(C)C)C(=O)N[C@@H](CCC(N)=O)C(=O)N[C@@H](CC(C)C)C(=O)N[C@@H](CCSC)C(=O)N[C@@H](Cc1c[nH]cn1)C(=O)N[C@@H](CC(N)=O)C(=O)N[C@@H](CC(C)C)C(=O)NCC(=O)N[C@@H](CCCCN)C(=O)N[C@@H](Cc1c[nH]cn1)C(=O)N[C@@H](CC(C)C)C(=O)N[C@@H](CC(N)=O)C(=O)N[C@@H](CO)C(=O)N[C@@H](CCSC)C(=O)N[C@@H](CCC(=O)O)C(=O)N[C@@H](CCCN=C(N)N)C(=O)N[C@H](C(=O)N[C@@H](CCC(=O)O)C(=O)N[C@@H](Cc1c[nH]c2ccccc12)C(=O)N[C@@H](CC(C)C)C(=O)N[C@@H](CCCN=C(N)N)C(=O)N[C@@H](CCCCN)C(=O)N[C@@H](CCCCN)C(=O)N[C@@H](CC(C)C)C(=O)N[C@@H](CCC(N)=O)C(=O)N[C@@H](CC(=O)O)C(=O)N[C@H](C(=O)N[C@@H](Cc1c[nH]cn1)C(=O)N[C@@H](CC(N)=O)C(=O)N[C@@H](Cc1ccccc1)C(=O)N[C@H](C(=O)N[C@@H](C)C(N)=O)C(C)C)C(C)C)C(C)C (X3-SEIQLMHNLGKHLNSMERVEWLRKKLQDVHNFVA-NH2) | 9 | 1 | 1 | 1 |
| 0.65 | 7.9 | 0.85 | CC[C@H](C)[C@H](NC(=O)[C@H](CCC(=O)O)NC(=O)[C@H](CO)NC(=O)[C@@H](/C=C(\Cl)[C@H](C)N)C(C)C)C(=O)N[C@@H](CCC(N)=O)C(=O)N[C@@H](CC(C)C)C(=O)N[C@@H](CCSC)C(=O)N[C@@H](Cc1c[nH]cn1)C(=O)N[C@@H](CC(N)=O)C(=O)N[C@@H](CC(C)C)C(=O)NCC(=O)N[C@@H](CCCCN)C(=O)N[C@@H](Cc1c[nH]cn1)C(=O)N[C@@H](CC(C)C)C(=O)N[C@@H](CC(N)=O)C(=O)N[C@@H](CO)C(=O)N[C@@H](CCSC)C(=O)N[C@@H](CCC(=O)O)C(=O)N[C@@H](CCCN=C(N)N)C(=O)N[C@H](C(=O)N[C@@H](CCC(=O)O)C(=O)N[C@@H](Cc1c[nH]c2ccccc12)C(=O)N[C@@H](CC(C)C)C(=O)N[C@@H](CCCN=C(N)N)C(=O)N[C@@H](CCCCN)C(=O)N[C@@H](CCCCN)C(=O)N[C@@H](CC(C)C)C(=O)N[C@@H](CCC(N)=O)C(=O)N[C@@H](CC(=O)O)C(=O)N[C@H](C(=O)N[C@@H](Cc1c[nH]cn1)C(=O)N[C@@H](CC(N)=O)C(=O)N[C@@H](Cc1ccccc1)C(=O)N[C@H](C(=O)N[C@@H](C)C(N)=O)C(C)C)C(C)C)C(C)C (X1-SEIQLMHNLGKHLNSMERVEWLRKKLQDVHNFVA-NH2) | 8.9 | 1.1 | 1 | 1 |

Source: ChEMBL document CHEMBL1159136, “Dipeptide mimetics can substitute for the receptor activation domain resulting in highly potent analogues of hPTH(136)” (Bioorg Med Chem Lett, 1996)
